# According to patent EP1943275B1, “INSULINOTROPIC COMPOUNDS AND USES THEREOF” (Activotec SPP Limited, priority 2005, dated 2010):
# Ends that are not written are not given here.
# How the values were obtained:
# [1] = Control study: chemical stability in PBS/triethanolamine solution in the absence of DPP-IV; format: physicochemical; settings: no DPP-IV; for percentage of each analogue remaining: PBS/TEthA, pH 7.5, 37°
# Procedure: In the control study, peptides were incubated with PBS/triethanolamine solution in the absence of DPP-IV to measure their chemical stability.
# DPP-IV = assay: Dipeptidyl peptidase IV (DPP-IV) assays (Example 10): DPP-IV digestion monitored by RP-HPLC; format: in vitro ADME; settings: PBS/TEthA, pH 7.5, 37°
# Text: Their stabilities were monitored by RP-HPLC, noting the disappearance of the intact sequence and appearance of a species missing the N terminal dipeptide or similar fragment.
# dipeptidyl peptidase IV = assay: DPP-IV assay (Example 5): hydrolysis followed by HPLC and ES-MS; format: in vitro ADME; settings: After 18 hr incubation, 37°C, 50 mM triethanolamine buffer, pH 7.8, 11 milliunits DPP-IV
# Procedure: Biological Chemistry. 385, pp 169-177.
# Briefly, 100 - 200 microgams of each peptide was dissolved in 0.5 ml of 50 mM triethanolamine buffer, pH 7.8. To this was added a 10 microlitre solution of 11 milliunits DPP-IV (Sigma) and the solutions incubated at 37°C for up to 42 hours. […] The incubations were terminated by addition of 5 microlitres TFA to each tube and 50 microlitre of each were injected onto a reversed phase 4.6 x 250 mm C18 HPLC column, eluting a gradient of 20% - 45% acetonitrile in 0.1 % TFA/water over 25 minutes. […] After 42 hours, the 2 analogues slowly degraded to a product that gave a mass spectrum consistent with the mass of the 9-37 sequence, indicating longer term instability of the urea bond. This represented as much as 15% of the product by HPLC. This degradation appeared to be non-DPP-IV related, since samples without enzyme gave the same profile.
# [2] = active form of GLP-1; DPP IV cleavage between Ala8 and Glu9; cited from earlier work
Compound,percentage of each analogue remaining ([1]; Time 0 hr),percentage of each analogue remaining ([1]; Time 22 hr),percentage of each analogue remaining ([1]; Time 47 hr),percentage of each analogue remaining (DPP-IV; Time 0 hr),percentage of each analogue remaining (DPP-IV; Time 22 hr),"non-enzymatic degradation ([1]; after 47 hr, by HPLC)",cleavage of the N terminal dipeptide by DPP-IV (dipeptidyl peptidase IV),circulating half-life [2]
"CC[C@H](C)[C@H](NC(=O)[C@H](Cc1ccccc1)NC(=O)[C@H](CCC(=O)O)NC(=O)[C@H](CCCCN)NC(=O)[C@H](C)NC(=O)[C@H](C)NC(=O)[C@H](CCC(N)=O)NC(=O)CNC(=O)[C@H](CCC(=O)O)NC(=O)[C@H](CC(C)C)NC(=O)[C@H](Cc1ccc(O)cc1)NC(=O)[C@H](CO)NC(=O)[C@H](CO)NC(=O)[C@@H](NC(=O)[C@H](CC(=O)O)NC(=O)[C@H](CO)NC(=O)[C@@H](NC(=O)[C@H](Cc1ccccc1)NC(=O)[C@@H](NC(=O)CNC(=O)[C@H](CCC(=O)O)NC(=O)[C@H](C)NNC(=O)[C@@H](N)Cc1c[nH]cn1)[C@@H](C)O)[C@@H](C)O)C(C)C)C(=O)N[C@@H](C)C(=O)N[C@@H](Cc1c[nH]c2ccccc12)C(=O)N[C@@H](CC(C)C)C(=O)N[C@H](C(=O)N[C@@H](CCCCN)C(=O)NCC(=O)N[C@@H](CCCNC(=N)N)C(=O)NCC(=O)O)C(C)C [SP008, L-His-NH-NH-CH(CH3)-C(O)-Glu9-37]",98%,,,95%,95%,20-25%,,
HAEGTFTSDVSSYLEG [GLP-1 7-22],,,,,,,completely cleaved,
"CC[C@H](C)[C@H](NC(=O)[C@H](Cc1ccccc1)NC(=O)[C@H](CCC(=O)O)NC(=O)[C@H](CCCCN)NC(=O)[C@H](C)NC(=O)[C@H](C)NC(=O)[C@H](CCC(N)=O)NC(=O)CNC(=O)[C@H](CCC(=O)O)NC(=O)[C@H](CC(C)C)NC(=O)[C@H](Cc1ccc(O)cc1)NC(=O)[C@H](CO)NC(=O)[C@H](CO)NC(=O)[C@@H](NC(=O)[C@H](CC(=O)O)NC(=O)[C@H](CO)NC(=O)[C@@H](NC(=O)[C@H](Cc1ccccc1)NC(=O)[C@@H](NC(=O)CNC(=O)[C@H](CCC(=O)O)NC(=O)[C@H](C)NC(=O)[C@@H](N)Cc1c[nH]cn1)[C@@H](C)O)[C@@H](C)O)C(C)C)C(=O)N[C@@H](C)C(=O)N[C@@H](Cc1c[nH]c2ccccc12)C(=O)N[C@@H](CC(C)C)C(=O)N[C@H](C(=O)N[C@@H](CCCCN)C(=O)NCC(=O)N[C@@H](CCCN=C(N)N)C(=O)NCC(=O)O)C(C)C [Native GLP-1 7-37, glucagon-like peptide-1 (7-37)]",,,,,,,,less than 2 minutes

# Continued, in another order:
percentage of each analogue remaining ([1]; Time 0 hr),percentage of each analogue remaining ([1]; Time 22 hr),percentage of each analogue remaining ([1]; Time 47 hr),percentage of each analogue remaining (DPP-IV; Time 0 hr),percentage of each analogue remaining (DPP-IV; Time 22 hr),"non-enzymatic degradation ([1]; after 47 hr, by HPLC)",cleavage of the N terminal dipeptide by DPP-IV (dipeptidyl peptidase IV),Compound,circulating half-life [2]
98%,95%,95%,95%,<5%,,,"CC[C@H](C)[C@H](NC(=O)[C@H](Cc1ccccc1)NC(=O)[C@H](CCC(=O)O)NC(=O)[C@H](CCCCN)NC(=O)[C@H](C)NC(=O)[C@H](C)NC(=O)[C@H](CCC(N)=O)NC(=O)CNC(=O)[C@H](CCC(=O)O)NC(=O)[C@H](CC(C)C)NC(=O)[C@H](Cc1ccc(O)cc1)NC(=O)[C@H](CO)NC(=O)[C@H](CO)NC(=O)[C@@H](NC(=O)[C@H](CC(=O)O)NC(=O)[C@H](CO)NC(=O)[C@@H](NC(=O)[C@H](Cc1ccccc1)NC(=O)[C@@H](NC(=O)CNC(=O)[C@H](CCC(=O)O)NC(=O)CNNC(=O)[C@H](C)NC(=O)[C@@H](N)Cc1c[nH]cn1)[C@@H](C)O)[C@@H](C)O)C(C)C)C(=O)N[C@@H](C)C(=O)N[C@@H](Cc1c[nH]c2ccccc12)C(=O)N[C@@H](CC(C)C)C(=O)N[C@H](C(=O)N[C@@H](CCCCN)C(=O)NCC(=O)N[C@@H](CCCNC(=N)N)C(=O)NCC(=O)O)C(C)C [SP007, L-His-L-Ala-NH-NH-CH2-C(O)-Glu9-37]",
98%,95%,,95%,95%,,,CC[C@H](C)[C@H](NC(=O)[C@H](Cc1ccccc1)NC(=O)[C@H](CCC(=O)O)NC(=O)[C@H](CCCCN)NC(=O)[C@H](C)NC(=O)[C@H](C)NC(=O)[C@H](CCC(N)=O)NC(=O)CNC(=O)[C@H](CCC(=O)O)NC(=O)[C@H](CC(C)C)NC(=O)[C@H](Cc1ccc(O)cc1)NC(=O)[C@H](CO)NC(=O)[C@H](CO)NC(=O)[C@@H](NC(=O)[C@H](CC(=O)O)NC(=O)[C@H](CO)NC(=O)[C@@H](NC(=O)[C@H](Cc1ccccc1)NC(=O)[C@@H](NC(=O)CNC(=O)[C@H](CCC(=O)O)NC(=O)CONC[C@H](C)NC(=O)[C@@H](N)Cc1c[nH]cn1)[C@@H](C)O)[C@@H](C)O)C(C)C)C(=O)N[C@@H](C)C(=O)N[C@@H](Cc1c[nH]c2ccccc12)C(=O)N[C@@H](CC(C)C)C(=O)N[C@H](C(=O)N[C@@H](CCCCN)C(=O)NCC(=O)N[C@@H](CCCNC(=N)N)C(=O)NCC(=O)O)C(C)C [SP005],
98%,,,95%,,,,"CC[C@H](C)[C@H](NC(=O)[C@H](Cc1ccccc1)NC(=O)[C@H](CCC(=O)O)NC(=O)[C@H](CCCCN)NC(=O)[C@H](C)NC(=O)[C@H](C)NC(=O)[C@H](CCC(N)=O)NC(=O)CNC(=O)[C@H](CCC(=O)O)NC(=O)[C@H](CC(C)C)NC(=O)[C@H](Cc1ccc(O)cc1)NC(=O)[C@H](CO)NC(=O)[C@H](CO)NC(=O)[C@@H](NC(=O)[C@H](CC(=O)O)NC(=O)[C@H](CO)NC(=O)[C@@H](NC(=O)[C@H](Cc1ccccc1)NC(=O)[C@@H](NC(=O)CNC(=O)[C@H](CCC(=O)O)NC(=O)CNNC(=O)[C@@H](N)Cc1c[nH]cn1)[C@@H](C)O)[C@@H](C)O)C(C)C)C(=O)N[C@@H](C)C(=O)N[C@@H](Cc1c[nH]c2ccccc12)C(=O)N[C@@H](CC(C)C)C(=O)N[C@H](C(=O)N[C@@H](CCCCN)C(=O)NCC(=O)N[C@@H](CCCNC(=N)N)C(=O)NCC(=O)O)C(C)C [SP006, L-His-NH-NH-CH2-C(O)-Glu9-37]",
